# Assay results as given in US7741327B2 (Hoffmann-La Roche Inc., priority 2008, dated 2010).
# Legend:
# C57B6 mice = assay: Glucokinase activator in vivo screen: blood glucose lowering in mice after oral dosing; settings: Mus musculus, vs control, read-out: % gluc lowering @ 4 H; for change in vivo at 30 mg/kg: 4 h post 30 mg/kg oral dose; for change in vivo at 25 mg/kg: 4 h post 25 mg/kg oral dose
# Method: Glucokinase Activator in vivo Screen Protocol in Lean and Diet Induced Obese Mice: Lean or Diet-Induced Obese (DIO) C57BL/6J mice were orally dosed via gavage with Glucokinase (GK) activator following a two hour fasting period. Blood glucose determinations were made at various (e.g. 0, 1, 2, 4 and 8 h post-oral gavage) times during the study.
# C57Bl/6J mice were obtained from Jackson Laboratory (Bar Harbor, Me.) and were maintained in a light-dark cycle with lights on from 0600-1800 hr. For studies in lean mice, the mice were received at age ten weeks and given ad libitum access to control diet (LabDiet 5001 chow, PMI Nutrition, Brentwood, Mo.), and were at least age 11 weeks at the time of study. For studies in the DIO model, the mice were received at age five weeks and given ad libitum access to Bio-Serv F3282 High Fat Diet (Frenchtown, N.J.), and were at least age 16 weeks at the time of study. The experiments were conducted during the light phase of the light-dark cycle. Mice (n=6) are weighed and fasted for a two hour period prior to oral treatment. GK activators are formulated in Gelucire vehicle (Ethanol:Gelucire44/14:PEG400q.s. 4:66:30 v/w/v. For studies in lean mice, the mice were dosed orally with 5.0 μL per gram of body weight (i.e. 5 ml/kg×10.0 mg/ml formulation to equal a 50 mg/kg dose). For studies in DIO mice, the mice were dosed orally with 5.0 μL per gram of body weight (i.e. 5.0 ml/kg×5 mg/ml formulation to equal a 25 mg/kg dose). Immediately prior to dosing, a pre-dose (time zero) blood glucose reading was acquired by snipping off a small portion of the animal's tail and collecting 15 μL blood into a heparinized capillary tube for analysis. Following GK activator administration, additional blood glucose readings were taken at various time points post dose from the same tail wound. Results were interpreted by comparing the mean blood glucose values of vehicle treated mice with GK activator treated mice over the study period.
# The Table below provides data for % glucose lowering of a representative number of compounds of the present invention vs control at 4 h post 25 or 30 mg/kg dose in C57B6 mice: […]
# [1] = molecular target: T1, Recombinant human liver GK1 (GST-GK) (Homo sapiens, UniProt P35557); assay: In vitro glucokinase activity (G6PDH-coupled NADH assay); format: biochemical; settings: 30° C., 5 mM D-glucose, 10% DMSO
# T1 construct: made in house; host or cells: E. coli
# T1 sequence (P35557 1-466 isoform P35557-2): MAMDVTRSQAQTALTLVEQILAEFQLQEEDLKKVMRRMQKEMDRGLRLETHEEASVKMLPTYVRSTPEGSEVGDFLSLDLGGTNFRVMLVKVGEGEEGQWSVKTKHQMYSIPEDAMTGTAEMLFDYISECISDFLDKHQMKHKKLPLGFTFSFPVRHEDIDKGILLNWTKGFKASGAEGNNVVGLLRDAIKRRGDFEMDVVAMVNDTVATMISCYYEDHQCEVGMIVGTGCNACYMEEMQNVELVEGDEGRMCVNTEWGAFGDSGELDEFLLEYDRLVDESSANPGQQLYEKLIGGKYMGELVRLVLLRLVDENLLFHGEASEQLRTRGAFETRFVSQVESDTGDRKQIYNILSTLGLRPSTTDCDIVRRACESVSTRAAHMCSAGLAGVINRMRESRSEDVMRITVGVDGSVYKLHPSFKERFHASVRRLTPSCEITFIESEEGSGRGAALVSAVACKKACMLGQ
# Summary of the method: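 GST-tagged human liver GK1 from E. coli, assayed at 30° C in 25 mM Hepes pH 7.1 with 5 mM D-glucose, 1 mM ATP, 1.8 mM NAD and G6PDH coupling, 10% DMSO final; reaction started with enzyme after 10 min preincubation. NADH formation followed at OD340; SC1.5 is activator concentration giving 50% increase over DMSO control rate.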
SC1.5 (concentration of activator that produced a 50% increase in the activity of GK) [1] [µM],Compound,change in vivo at 30 mg/kg (C57B6 mice) [%],change in vivo at 25 mg/kg (C57B6 mice) [%]
0.03,"COc1cccc(OC2=CC(=O)N([C@@H](CC3CCOCC3)C(=O)Nc3ccn(CC(C)(C)O)n3)C2)c1Cl [Example 51, (S)-2-[4-(2-Chloro-3-methoxy-phenoxy)-2-oxo-2,5-dihydro-pyrrol-1-yl]-N-[1-(2-hydroxy-2-methyl-propyl)-1H-pyrazol-3-yl]-3-(tetrahydro-pyran-4-yl)-propionamide]",-53.9,–
0.257,"CC(C)C[C@@H](C(=O)Nc1ccn(C[C@@H](O)CO)n1)N1CC(Oc2c(F)cccc2F)=CC1=O [Example 47, (S)-2-[4-(2,6-difluoro-phenoxy)-2-oxo-2,5-dihydro-pyrrol-1-yl]-4-methyl-pentanoic acid [1-((R)-2,3-dihydroxy-propyl)-1H-pyrazol-3-yl]-amide]",-33.2,–
0.649,"CC(C)(O)Cn1ccc(NC(=O)[C@H](CC2CCCC2)N2CC(OC3CCCC3)=CC2=O)n1 [Example 16, (S)-3-Cyclopentyl-N-[1-(2-hydroxy-2-methyl-propyl)-1H-pyrazol-3-yl]-2-(4-cyclopentyloxy-2-oxo-2,5-dihydro-pyrrol-1-yl)-propionamide]",–,-36
0.013,"COc1ccccc1OC1=CC(=O)N([C@@H](CC2CCCCC2)C(=O)Nc2ccn(CC(C)(C)O)n2)C1 [Example 28, (S)-3-Cyclohexyl-N-[1-(2-hydroxy-2-methyl-propyl)-1H-pyrazol-3-yl]-2-[4-(2-methoxy-phenoxy)-2-oxo-2,5-dihydro-pyrrol-1-yl]-propionamide]",–,-45.4
0.162,"CC(C)C[C@@H](C(=O)Nc1ccn(CC(C)(C)O)n1)N1CC(Oc2cccc(Cl)c2Cl)=CC1=O.Cl [Example 77, (S)-2-[4-(2,3-Dichloro-phenoxy)-2-oxo-2,5-dihydro-pyrrol-1-yl]-4-methyl-pentanoic acid [1-(2-hydroxy-2-methyl-propyl)-1H-pyrazol-3-yl]-amide Hydrochloride]",-39.2,–
0.031,"COc1ccccc1OC1=CC(=O)N([C@@H](CC2CCCC2)C(=O)Nc2nccs2)C1 [Example 26, (S)-3-Cyclopentyl-2-[4-(2-methoxy-phenoxy)-2-oxo-2,5-dihydro-pyrrol-1-yl]-N-thiazol-2-yl-propionamide]",–,-36.9
0.029,"COc1ccccc1OC1=CC(=O)N([C@@H](CC2CCCC2)C(=O)Nc2ccn(CC(C)(C)O)n2)C1 [Example 27, (S)-3-Cyclopentyl-N-[1-(2-hydroxy-2-methyl-propyl)-1H-pyrazol-3-yl]-2-[4-(2-methoxy-phenoxy)-2-oxo-2,5-dihydro-pyrrol-1-yl]-propionamide]",-52.2,–
3.982,"CC(C)(O)Cn1ccc(NC(=O)[C@H](CC2CCCC2)N2CC(OC3CCOCC3)=CC2=O)n1 [Example 18, (S)-3-Cyclopentyl-N-[1-(2-hydroxy-2-methyl-propyl)-1H-pyrazol-3-yl]-2-[2-oxo-4-(tetrahydro-pyran-4-yloxy)-2,5-dihydro-pyrrol-1-yl]-propionamide]",–,-10
0.348,"COc1ccccc1OC1=CC(=O)N([C@@H](CC2CCCO2)C(=O)Nc2ccn(CC(C)(C)O)n2)C1 (stereo partly drawn) [Example 31, (S)-N-[1-(2-hydroxy-2-methyl-propyl)-1H-pyrazol-3-yl]-2-[4-(2-methoxy-phenoxy)-2-oxo-2,5-dihydro-pyrrol-1-yl]-3-(tetrahydro-furan-2-yl)-propionamide]",–,-31.6
0.366,"CC(C)(O)Cn1ccc(NC(=O)[C@H](CC2CCCC2)N2CC(OC3CCCCC3)=CC2=O)n1 [Example 17, (S)-3-Cyclopentyl-N-[1-(2-hydroxy-2-methyl-propyl)-1H-pyrazol-3-yl]-2-(4-cyclohexyloxy-2-oxo-2,5-dihydro-pyrrol-1-yl)-propionamide]",–,-35.8
0.545,"COC(C)(C)Cn1ccc(NC(=O)[C@H](CC2CCCC2)N2CC(OC3CCCC3)=CC2=O)n1 [Example 21, (S)-3-Cyclopentyl-N-[1-(2-methoxy-2-methyl-propyl)-1H-pyrazol-3-yl]-2-(4-cyclopentyloxy-2-oxo-2,5-dihydro-pyrrol-1-yl)-propionamide]",–,-26.5
0.058,"CC(C)(O)Cn1ccc(NC(=O)[C@H](CC2CCOCC2)N2CC(Oc3c(F)cccc3F)=CC2=O)n1 [Example 43, (S)-2-[4-(2,6-Difluoro-phenoxy)-2-oxo-2,5-dihydro-pyrrol-1-yl]-N-[1-(2-hydroxy-2-methylpropyl)-1H-pyrazol-3-yl]-3-(tetrahydro-pyran-4-yl)-propionamide]",-38.1,–
0.125,"CC(C)C[C@@H](C(=O)Nc1ccn(CC(C)(C)O)n1)N1CC(Oc2ccccc2Cl)=CC1=O [Example 64, (S)-2-[4-(2-Chloro-phenoxy)-2-oxo-2,5-dihydro-pyrrol-1-yl]-4-methyl-pentanoic acid [1-(2-hydroxy-2-methyl-propyl)-1H-pyrazol-3-yl]-amide]",-58,–
0.021,"CC(C)(O)Cn1ccc(NC(=O)[C@H](CC2CCCC2)N2CC(Oc3c(F)cccc3F)=CC2=O)n1 [Example 86, (S)-3-Cyclopentyl-2-[4-(2,6-difluoro-phenoxy)-2-oxo-2,5-dihydro-pyrrol-1-yl]-N-[1-(2-hydroxy-2-methyl-propyl)-1H-pyrazol-3-yl]-propionamide]",-57.4,–
0.025,"CC(C)(O)Cn1ccc(NC(=O)[C@H](CC2CCCCC2)N2CC(Oc3ccccc3C(F)(F)F)=CC2=O)n1 [Example 32, (S)-3-Cyclohexyl-N-[1-(2-hydroxy-2-methyl-propyl)-1H-pyrazol-3-yl]-2-[2-oxo-4-(2-trifluoromethyl-phenoxy)-2,5-dihydro-pyrrol-1-yl]-propionamide]",–,-37.5
0.118,"CC(C)C[C@@H](C(=O)Nc1ccn(C[C@@H](O)CO)n1)N1CC(Oc2ccccc2Cl)=CC1=O [Example 66, (S)-2-[4-(2-Chloro-phenoxy)-2-oxo-2,5-dihydro-pyrrol-1-yl]-4-methyl-pentanoic acid [1-((R)-2,3-dihydroxy-propyl)-1H-pyrazol-3-yl]-amide]",-55.4,–
0.03,"O=C(Nc1ccn(C[C@@H](O)CO)n1)[C@H](CC1CCCC1)N1CC(Oc2c(F)cccc2F)=CC1=O [Example 88, (S)-3-Cyclopentyl-2-[4-(2,6-difluoro-phenoxy)-2-oxo-2,5-dihydro-pyrrol-1-yl]-N-[1-((R)-2,3-dihydroxy-propyl)-1H-pyrazol-3-yl]-propionamide]",-49.3,–

Compound,SC1.5 (concentration of activator that produced a 50% increase in the activity of GK) [1] [µM],change in vivo at 30 mg/kg (C57B6 mice) [%],change in vivo at 25 mg/kg (C57B6 mice) [%]
"CC(C)(O)Cn1ccc(NC(=O)[C@H](CC2CCCC2)N2CC(OC3CCC3)=CC2=O)n1 [Example 19, (S)-3-Cyclopentyl-N-[1-(2-hydroxy-2-methyl-propyl)-1H-pyrazol-3-yl]-2-(4-cyclobutoxy-2-oxo-2,5-dihydro-pyrrol-1-yl)-propionamide]",1.991,–,-29.5
